Reference: patent publication US20230365933A1, “COMPOSITIONS AND METHODS FOR INCREASING STEM CELL FUNCTION” (SOCIETE DES PRODUITS NESTLE S.A., priority 2020, published 2023)
Entries after “also recorded” stand apart in the source; their conditions may differ.

How the values were obtained:
[1] = tested on: murine HSCs (LKS CD150+CD48−); assay: Mitochondrial membrane potential by TMRM staining and flow cytometry in cultured mHSCs; assay type: cell-based, mouse; details: compared to Basal condition; NR 500 uM, Vit B12 (MC) 100 uM; day 3 of culture
Procedure: Flow cytometry analysis was performed on freshly isolated bone marrow (BM) from C57BI6 mice. BM was extracted from crushed femora and tibia. Cell suspension was filtered through a 70 μm cell strainer and erythroid cells were eliminated by incubation with red blood cell lysis buffer (eBioscences). Isolation and stains were performed in ice-cold PBS 1 mM EDTA. Lineage positive cells were then removed with a magnetic lineage depletion kit (BD biosciences). Cell suspensions were then stained with specific antibodies for the stem cell compartment and sorted by FACS (BD FACS Aria III) into 1.5 ml Eppendorf tubes.
The following antibodies were used in this study: rat mAbs against cKit (2B8), Sca1 (D7), CD150 (TC-15-12F12.2), CD48 (HM48-1). The antibodies were purchased from Biolegend, eBiosciences and BD. A mixture of biotinylated mAbs against CD3, CD11b, CD45R/B220, Ly-6G, Ly-6C and TER-119 was used as lineage marker (“lineage cocktail”) and was purchased from BD. DAPI or propidium iodine (PI) staining was used for live/dead cell discrimination.
Murine HSCs were sorted into 1.5 ml Eppendorf tubes and were cultured in Stemline II (SIGMA) supplemented with 100 ng/ml SCF (R&D) and 2 ng/ml Flt3 (R&D). This was defined as the basal condition. Different concentrations as indicated of NR and Vit B12 (MC) were added in specific wells. NR was supplemented every 24 hours.
Mouse HSCs already in culture were incubated at 37° C. for 1 hour with 200 nM tetramethylrhodamine methyl ester (TMRM; Invitrogen) and 100 nM Mitotracker green. Cells were then washed with FACS buffer and analysed by flow cytometry on a BD LSR II.
Freshly FACS sorted mHSCs (LKS CD150+CD48−) were cultured in basal media (Stemline+SCF+FLT3L) supplemented with UroA, NR and MC in specific wells (as indicated). Cells were harvested at day 3 and stained with tetramethylrhodamine methyl ester (TMRM; to measure mitochondria membrane potential) and Mitotracker (to measure mitochondrial mass), and analysed by flow cytometry.

human HSCs = details: culture media supplemented with nicotinamide riboside, primary and secondary recipient humanised mice; cited from earlier work

## C/C1=C2/[N-][C@H]([C@H](CC(N)=O)[C@@]2(C)CCC(=O)NC[C@@H](C)OP(=O)([O-])O[C@H]2[C@@H](O)[C@@H](n3cnc4cc(C)c(C)cc43)O[C@@H]2CO)[C@]2(C)N=C(/C(C)=C3N=C(/C=C4N=C1[C@@H](CCC(N)=O)C\4(C)C)[C@@H](CCC(N)=O)[C@]\3(C)CC(N)=O)[C@@H](CCC(N)=O)[C@]2(C)CC(N)=O.[CH3-].[Co] [MC, methylcobalamine]
[1]
  TMRM fluorescent intensity (Mean Fluorescence Intensity, MFI): significantly decreased; also recorded: decreases
  proportion of cells in the TMRM low gate: significantly increased; also recorded: increases

## NC(=O)c1ccc[n+]([C@@H]2O[C@H](CO)[C@@H](O)[C@H]2O)c1 [NR, Nicotinamide riboside]
[1]
  TMRM fluorescent intensity (Mean Fluorescence Intensity, MFI): significantly decreased; also recorded: decreases
  proportion of cells in the TMRM low gate: significantly increased; also recorded: increases
Human HSCs
  levels of engraftment: significantly higher levels of engraftment
  long-term blood production: capable of sustaining long-term blood production
